Results: US8206970B2, “Production of 2-butanol and 2-butanone employing aminobutanol phosphate phospholyase” (Butamax(TM) Advanced Biofuels LLC, priority 2006, dated 2012)

Tests used:
[1] = test system: Erwinia amino alcohol O-phosphate lyase; assay: aminopropanol O-phosphate lyase assay (colorimetric, MBTH); type: biochemical, Erwinia carotovora subsp. atroseptica; conditions: induced cell free extract 100 μg/mL, 10 mM substrate, 37° C.
Procedure: The PBAD.KA-AT plasmid was transformed into the E. coli TOP10 strain. A 50 mL culture of TOP10/pBAD.KA-AT strain was grown to mid log phase (OD600=0.6) in LB, 100 μg/mL ampicillin media at 37° C. with shaking at 250 rpm. The culture was induced by addition of L-arabinose to a final concentration of 0.1% (w/v), and it was further incubated at 37° C. for 5 h before harvesting by centrifugation. The cell pellet was resuspended in ice cold 50 mM Tris-HCl, pH 8.0, and disrupted by sonication on ice with a Fischer Sonic Model 300 Dismembrator (Fischer, Pittsburgh, Pa.) at 50% power, repeating four cycles of 30 seconds sonication with 60 seconds rest in-between each cycle. Each sonicated sample was centrifuged (15,000×g, 4 min, 4° C.). Clarified cell free extracts were analyzed for protein expression level and amino alcohol O-phosphate lyase activity.
The aminopropanol O-phosphate lyase assay was performed as described by Jones et al. (1973, Biochem. J. 134:167-182) and G. Gori et al. (1995, Chromatographia 40:336) The formation of propionaldehyde from aminopropanol O-phosphate was assayed calorimetrically with MBTH, which allows the detection of aldehyde formation. The reaction was performed as follows. In a 1 mL reaction, 100 μg cell free extract of E. coli TOP10/pBAD.KA-AT was added to 10 mM DL-1-amino-2-propanol O-phosphate in 100 mM Tris-HCl, pH 7.8, with 0.1 mM PLP. The reaction was incubated at 37° C. for 10 min and 30 min, with an aliquot of 100 μL reaction mixture removed at each time point and mixed with 100 μL of 6 mg/mL MBTH in 375 mM glycine-HCl, pH 2.7. This mixture was incubated at 100° C. for 3 min, cooled on ice for 15-30 s, and 1 mL of 3.3 mg/mL FeCl3.6H2O (in 10 mM HCl) was added, followed by incubation for 30 min at room temperature. The absorbance of the reaction mixture which contains the aldehyde-MBTH adduct, was measured at 670 nm. In the presence of the aminopropanol phosphate substrate, PLP and cell free extract, formation of aldehyde was detected, as indicated by an Abs670 that was higher than the control background of up to 0.3. In the absence of either the substrate or the cell free extract, no aldehyde formation was detected. In the absence of added PLP, somewhat less amount aldehyde was detected, presumably due to the presence of PLP in the cell free extract.

[2] = test system: Erwinia amino alcohol O-phosphate lyase; assay: activity of amino alcohol O-phosphate lyase towards aminobutanol O-phosphate and stereoisomers (MBTH derivatization, HPLC); type: biochemical, Erwinia carotovora subsp. atroseptica; conditions: for product yield / activity compared among substrates: same conditions, comparison between substrate isomers; for conversion of substrate to ketone product: 100 μg cell free extract, 10 mM substrate, 0.1 mM PLP, pH 7.8, 37° C. overnight
Procedure: 2-Butanone can also be detected by derivatization with 3-methyl-2-benzothiazolinone hydrazone (MBTH). An aqueous solution containing 2-butanone is mixed with an equal volume of an aqueous solution of 6 mg/mL MBTH in 375 mM glycine-HCl (pH 2.7) and incubated at 100° C. for 3 min. The resulting MBTH-derivatized samples are analyzed on a 25 cm×4.6 mm (id) Supelosil LC-18-D5 5 μm column (Supelco) using a mobile phase of 55% acetonitrile in water at a flow rate of 1 mL/min. The 2-butanone derivative appears as two peaks (cis and trans isomers) with retention times of approximately 12.3 and 13.3 min and absorbance maxima of 230 and 307 nm.
The activity of the amino alcohol O-phosphate lyase towards the aminobutanol O-phosphate substrates was studied under the same conditions as described above. The reaction was carried out at 37° C. overnight in a 1 mL reaction that contained 100 μg of cell free extract of E. coli TOP10/pBAD.KA-AT, 10 mM aminobutanol O-phosphate (either the mixture of (R,R)+(S,S) or the mixture of (R,S) +(S,R) isomers described in Example 15) in 100 mM Tris-HCI, pH 7.8, with 0.1 mM PLP. An aliquot of 100 μL reaction mixture was removed and the 2-butanone product was detected using the MBTH derivatization method described in the General Methods. […] Therefore the Erwinia amino alcohol O-phosphate lyase is an aminobutanol phosphate phospho-lyase in addition to an aminopropanol phosphate phospho-lyase.
The activity of the Erwinia amino alcohol O-phosphate lyase towards various stereoisomers of aminopropanol O-phosphate and aminobutanol O-phosphate was studied under the same conditions as described above. […] Both propanone and butanone products were derivatized by MBTH, and detected by HPLC as described in General Methods.

[3] = test system: Klebsiella pneumoniae glycerol dehydratase; assay: glycerol dehydratase butanediol dehydratase activity; type: biochemical; conditions: crude cell free extract of KLP23/pSYCO12, 80 mM HEPES pH 8.2, 37° C., 12 μM coenzyme B12, 10 mM substrate
Excerpt: Glycerol dehydratase (E.C. 4.2.1.30) and diol dehydratase (E.C. 4.2.1.28), while structurally related, are often distinguished in the art based on various differences that include substrate specificity. […] The recombinant E. coli strain KLP23/pSYCO1 2, comprising Klebsiella pneumoniae genes encoding the multiple subunits of glycerol dehydratase (alpha: SEQ ID NO:145 (coding region) and 146 (protein); beta: SEQ ID NO: 147 (coding region) and 148 (protein); and gamma: SEQ ID NO: 149 (coding region) and 150 (protein)) and Klebsiella pneumoniae genes encoding the multiple subunits of glycerol dehydratase reactivase (large subunit, SEQ ID NO: 151 (coding region) and 152 (protein); and small subunit, SEQ ID NO: 153 (coding region) and 154 (protein)), is described in Emptage et al. U.S. Pat. No. 6,514,733 and in WO 2003089621, which are herein incorporated by reference. A crude, cell free extract of KLP23/pSYCO12 was prepared by methods known to one skilled in the art. […] The formation of 2-butanone was monitored by HPLC (Shodex SH-1011 column and SH-G guard column with refractive index detection; 0.01 M H2SO4 as the mobile phase at a flow rate of 0.5 mL/min and a column temperature of 50° C.; 2-butanone retention time=40.2 min). The rate of 2-butanone formation by the glycerol dehydratase preparation was determined to be 0.4 nmol/min/mg of crude protein.

[4] = test system: Vibrio Fluvialis APT (alanine:acetoin aminotransferase); assay: kinetic resolution of 3-amino-2-butanol isomers with the alanine:acetoin aminotransferase; type: biochemical, Vibrio Fluvialis JS17; conditions: 10 mM pyruvate, 10 mM 1:1 isomer mixture, 0.28 mg enzyme, pH 9.0, 24 h room temperature
Procedure: An analytical method for detection of 3-amino-2-butanol was developed based on the o-phthaldialdehyde derivatization method for amino acid determination reported by Roth [Anal. Chem. 43:880 (1971)]. A 200 μL aliquot of 1 mM 3-amino-2-butanol (mixture of isomers) was mixed with 200 μL of a 50 mM solution of borate (pH 9.5), to which was added 10 μL of 5 μL/mL 2-mercaptoethanol in ethanol and 10 μL of 10 mg/mL o-phthaldialdehdye in ethanol. The solution was incubated at room temperature for 10 min, at which time the derivative was extracted into 200 μL hexane. The hexane was separated from the aqueous solution by decanting, and 10 μL were injected onto a Chiracel OD HPLC column (Daicel Chemical Industries; Fort Lee, N.J.). The column was run isocratically with a mobile phase of 90:10 hexane:isopropanol at a rate of 1 mL/min. The derivatized isomers of 3-amino-2-butanol were detected by absorbance at 340 nm with retention times of approximately 15.7 and 16.8 min [(2S,3S) and (2R,3R)], and 18.4 and 21.9 min [(2R,3S) and (2S,3R)]. […] After 24 h at room temperature, an aliquot was removed and analyzed as described above. […] After 3 h, samples were taken from the reaction and analyzed as described above for acetoin and butanediol. […]

[5] = test system: B12-independent diol dehydratase from Clostridium glycolicum; conditions: cited from earlier work

In the case of `CC(CN)OP(=O)(O)O` (racemic) [Aminopropanol O-phosphate, DL-1-amino-2-propanol O-phosphate], the “OD670, 10 min” value ([1]; PLP (+)) is reported as 1.229, the “OD670, 30 min” value ([1]; PLP (+)) is reported as 2.264 and the “OD670, 10 min” value ([1]; PLP (−)) is reported as 0.855. The “OD670, 30 min” value ([1]; PLP (−)) was 1.454 and the “product yield / activity compared among substrates” value [2] was “highest activity”.

For `CC(O)C(C)O` (stereo not drawn) [meso-2,3-butanediol], the “rate of 2-butanone formation” value [3] was 0.4 nmol/min/mg of crude protein.

For `C[C@@H](N)[C@@H](C)OP(=O)(O)O` (mixture of isomers) [mixture of (R,R)+(S,S), (R,R)-3-amino-2-butanol O-phosphate], the “conversion of substrate to ketone product” value (from here on “conversion of substrate”) [2] was “two peaks representing the derivatized 2-butanone isomers were observed”.

With `C[C@H](O)[C@@H](C)N` [(2S,3R) isomer, (2S,3R)-3-amino-2-butanol] the peak retained [4] was over 90%.

In the case of `C[C@@H](N)COP(=O)(O)O` [(R)-2-amino-1-propanol O-phosphate], the “conversion of substrate” value [2] is reported as “converted to propanone”.

For “(2R,3S)-3-amino-2-butanol O-phosphate and (2S,3R)-3-amino-2-butanol O-phosphate [mixture of (R,S) +(S,R) isomers]”, the “conversion of substrate” value [2] was “two peaks representing the derivatized 2-butanone isomers were observed” and the “product yield / activity compared among substrates” value [2] was “higher product yield”.

For `C[C@H](N)[C@@H](C)O` [(2R,3S) isomer, (2R,3S)-3-amino-2-butanol], the peak depleted [4] was 95%.

With `C[C@H](N)COP(=O)(O)O` [(S)-2-amino-1-propanol O-phosphate] the “conversion of substrate” value [2] was “converted to propanone” and the “product yield / activity compared among substrates” value [2] was “much higher”.

In the case of `CC(O)C(C)O` (stereo not drawn) [2,3-butanediol], the “activity relative to the activity towards ethanediol” value [5] is given as “less than 1%”.
